Columns and labels:
[1] = system: antibodies in sera from SARS patients (sera 1a, 1b, 2, 6, 37, 62, London, SARS-yellow, SARS-green); format: binding, human; parameters: Binding of serum 6 to linear peptides of protein X1 of SARS-CoV Urbani / Binding of serum 37 to linear peptides of protein X1 of SARS-CoV Urbani / Binding of serum 6 to looped/cyclic peptide (PEPSCAN-ELISA) / Binding of serum 37 to looped/cyclic peptide (PEPSCAN-ELISA) / Binding of serum 37 to looped/cyclic peptides of protein X1 of SARS-CoV Urbani / Binding of serum 6 to linear peptides of protein X2 / Binding of serum 37 to linear peptides of protein X2 / Binding of serum 37 to looped/cyclic peptides of protein X2 of SARS-CoV Urbani / Binding of serum 6 to linear peptides of protein M of SARS-CoV Urbani / Binding of serum 37 to linear peptides of protein M of SARS-CoV Urbani / Binding of serum 6 to looped/cyclic peptides of protein M of SARS-CoV Urbani / Binding of serum 37 to looped/cyclic peptides of protein M of SARS-CoV Urbani / Binding of serum 6 to linear peptides of protein X3 of SARS-CoV Urbani / Binding of serum 37 to linear peptides of protein X3 of SARS-CoV Urbani / Binding of serum 37 to looped/cyclic peptides of protein X3 of SARS-CoV Urbani / Binding of serum 6 to linear peptides of protein X4 of SARS-CoV Urbani / Binding of serum 37 to linear peptides of protein X4 of SARS-CoV Urbani / Binding of serum 37 to looped/cyclic peptides of protein X4 of SARS-CoV Urbani / Binding of serum 6 to linear peptides of protein X5 of SARS-CoV Urbani / Binding of serum 37 to linear peptides of protein X5 of SARS-CoV Urbani / Binding of serum 37 to looped/cyclic peptides of protein X5 of SARS-CoV Urbani / Binding of serum 6 to linear peptides of protein N of SARS-CoV Urbani / Binding of serum 37 to linear peptides of protein N of SARS-CoV Urbani / Binding of serum 6 to linear peptide (PEPSCAN-ELISA) / Binding of serum 1a to looped/cyclic peptides of protein N of SARS-CoV Urbani / Binding of serum 1b to looped/cyclic peptides of protein N of SARS-CoV Urbani / Binding of serum 2 to looped/cyclic peptides of protein N of SARS-CoV Urbani / Binding of serum 6 to looped/cyclic peptides of protein N of SARS-CoV Urbani / Binding of serum 37 to looped/cyclic peptides of protein N of SARS-CoV Urbani / Binding of serum 62 to looped/cyclic peptides of protein N of SARS-CoV Urbani / Binding of serum London to looped/cyclic peptides of protein N of SARS-CoV Urbani / Binding of serum SARS-green to looped/cyclic peptides of protein N of SARS-CoV Urbani: unit not given here
[2] = system: control sera (pooled serum of ten healthy LUMC hospital workers; commercial negative donor pooled serum from the Dutch bloodbank); format: binding, human; parameters: Binding of Control serum LUMC to linear peptides / Binding of Control serum Blood-bank to linear peptides / Binding of Control serum LUMC to looped peptides / Binding of Control Serum Blood-Bank to Looped peptides / Binding of Control serum LUMC to linear peptides of the protein M of SARS-CoV Urbani / Binding of Control serum Blood-bank to linear peptides of the protein M of SARS-CoV Urbani / Binding of Control serum LUMC to looped peptides of the protein M of SARS-CoV Urbani / Binding of Control Serum Blood-Bank to Looped peptides of the protein M of SARS-CoV Urbani: unit not given here
[3] = system: rabbit serum obtained by immunizing a rabbit with the SARS-CoV strain Frankfurt 1; format: binding; parameters: Binding of a rabbit serum to linear peptides / Binding of a rabbit serum to looped peptides / Rabbit serum linear peptides / Rabbit serum looped peptides / Binding of a rabbit serum to linear peptides of protein N of SARS-CoV Urbani (Rabbit serum linear peptides) / Binding of a rabbit serum to looped/cyclic peptides of protein N of SARS-CoV Urbani (Rabbit serum looped peptides): unit not given here
[4] = system: recombinant human anti-SARS-CoV antibody 03-018; format: binding; parameters: Binding of antibody 03-018 to linear peptides of the N protein of SARS-CoV Urbani / Binding of antibody 03-018 to looped/cyclic peptides of the N protein of SARS-CoV Urbani: unit not given here

Sequence	Binding of serum 1a to linear peptide (PEPSCAN-ELISA) [1]	Binding of serum 1a to looped/cyclic peptides of protein N of SARS-CoV Urbani [1]	Binding of serum 1b to linear peptide (PEPSCAN-ELISA) [1]	Binding of serum 1b to looped/cyclic peptides of protein N of SARS-CoV Urbani [1]	Binding of serum 2 to linear peptide (PEPSCAN-ELISA) [1]	Binding of serum 2 to looped/cyclic peptides of protein N of SARS-CoV Urbani [1]	Binding of serum 6 to looped/cyclic peptides of protein N of SARS-CoV Urbani [1]	Binding of serum 37 to looped/cyclic peptides of protein N of SARS-CoV Urbani [1]	Binding of serum 62 to looped/cyclic peptides of protein N of SARS-CoV Urbani [1]	Binding of serum London to looped/cyclic peptides of protein N of SARS-CoV Urbani [1]	Binding of serum SARS-green to looped/cyclic peptides of protein N of SARS-CoV Urbani [1]	Binding of serum SARS-yellow to looped/cyclic peptides of protein N of SARS-CoV Urbani [1]	Binding of Control Serum Blood-Bank to Looped peptides [2]	Binding of Control serum Blood-bank to linear peptides [2]	Binding of Control serum LUMC to linear peptides [2]	Binding of Control serum LUMC to looped peptides [2]	Binding of a rabbit serum to linear peptides of protein N of SARS-CoV Urbani (Rabbit serum linear peptides) [3]	Binding of a rabbit serum to looped/cyclic peptides of protein N of SARS-CoV Urbani (Rabbit serum looped peptides) [3]	Binding of antibody 03-018 to linear peptides of the N protein of SARS-CoV Urbani [4]	Binding of antibody 03-018 to looped/cyclic peptides of the N protein of SARS-CoV Urbani [4]	also measured
SSSRSRGNSRNSTPG	0.4	0.2	0.2	0.1	0.2	0.3	0.2	0.4	0.3	0.3	0.1	0.1	0.5	0.7	0.6	0.5	0.1	0.4	0.1	0.2	Binding of serum 6 to linear peptide (PEPSCAN-ELISA) [1]: 0.1; Binding of serum 37 to linear peptide (PEPSCAN-ELISA) [1]: 0.5; Binding of serum 62 to linear peptide (PEPSCAN-ELISA) [1]: 0.5; Binding of serum London to linear peptide (PEPSCAN-ELISA) [1]: 0.5; Binding of serum SARS-green to linear peptide (PEPSCAN-ELISA) [1]: 0.2; Binding of serum SARS-yellow to linear peptide (PEPSCAN-ELISA) [1]: 0.6
LPKGFYAEGSRGGSQ	0.2	0.3	0.1	0.2	0.2	0.3	0.2	0.5	0.4	0.4	0.3	0.2	0.6	0.6	0.6	0.5	0.1	0.1	0.1	0.2	Binding of serum 6 to linear peptide (PEPSCAN-ELISA) [1]: 0.1; Binding of serum 37 to linear peptide (PEPSCAN-ELISA) [1]: 0.6; Binding of serum 62 to linear peptide (PEPSCAN-ELISA) [1]: 0.6; Binding of serum London to linear peptide (PEPSCAN-ELISA) [1]: 0.4; Binding of serum SARS-green to linear peptide (PEPSCAN-ELISA) [1]: 0.2; Binding of serum SARS-yellow to linear peptide (PEPSCAN-ELISA) [1]: 0.5
NQNGGRNGARPKQRR	–	0.2	–	0.1	–	0.2	0.2	0.4	0.3	0.3	0.2	0.3	0.6	0.7	0.8	0.5	0.5	1.1	0.2	0.2	Binding of serum 1a to linear peptides of protein N of SARS-CoV Urbani [1]: 0.2; Binding of serum 1b to linear peptides of protein N of SARS-CoV Urbani [1]: 0.1; Binding of serum 2 to linear peptides of protein N of SARS-CoV Urbani [1]: 0.3; Binding of serum 6 to linear peptides of protein N of SARS-CoV Urbani [1]: 0.3; Binding of serum 37 to linear peptides of protein N of SARS-CoV Urbani [1]: 0.8; Binding of serum 62 to linear peptides of protein N of SARS-CoV Urbani [1]: 0.7; Binding of serum London to linear peptides of protein N of SARS-CoV Urbani [1]: 0.5; Binding of serum SARS-green to linear peptides of protein N of SARS-CoV Urbani [1]: 0.5; Binding of serum SARS-yellow to linear peptides of protein N of SARS-CoV Urbani [1]: 0.6
GGETALALLLLDRLN	0.2	0.4	0.1	0.3	0.2	0.5	0.2	0.7	0.7	0.5	0.3	0.7	0.8	0.7	0.6	0.8	0.1	0.6	0.1	0.2	Binding of serum 6 to linear peptide (PEPSCAN-ELISA) [1]: 0.2; Binding of serum 37 to linear peptide (PEPSCAN-ELISA) [1]: 0.6; Binding of serum 62 to linear peptide (PEPSCAN-ELISA) [1]: 0.6; Binding of serum London to linear peptide (PEPSCAN-ELISA) [1]: 0.4; Binding of serum SARS-green to linear peptide (PEPSCAN-ELISA) [1]: 0.4; Binding of serum SARS-yellow to linear peptide (PEPSCAN-ELISA) [1]: 0.5

Reference: US20070128217A1 (priority 2003, published 2007)
